Non-standard residues stand in square brackets, D forms with d. No end group written: not given here. pGlu = O=C1CC[C@@H](C(=O)O)N1

Consider two substances from patent US5753615A, “Neuropeptides and their use as insecticides” (Queen Mary and Westfield College, priority 1993, dated 1998).

The test system of assay [1] is corpora allata of the cockroach Diploptera punctata. The assay is classed as cell-based. The method, then:
Thus, it causes maximum inhibition of JH at a concentration of 1 nM, with a 50% inhibition (ED50) being achieved at 0.1 nM.

Assay [2] has the same test system. Conditions: given 'in comparison'; known allatostatins of the literature; test system not restated; cited from earlier work.

“GPPYDFGM-NH2 [Callatostatin 5, Gly-Pro-Pro-Tyr-Asp-Phe-Gly-Met-NH2]”: the “50% inhibition (ED50) of JH production” value in assay [1] is listed as 0.1 nM.

For “[pGlu]VRFRQCYFNPISCF-OH (cysteine pairing not given here) [allatostatin of Manduca sexta]”, the “ED50 (inhibition of JH production), comparison values” in assay [2] is 2 nM.
